# Several values for one entry are separate records, joined by “and”; a condition that tells them apart may be missing. Equal values may be shown once. Read-outs that look alike come from different tables or passages of the source.
# Columns and labels:
# [1] = Clinical PK: olaparib in tumor core, tumor margin and plasma of recurrent GBM patients (LC-MS); assay type: in vivo, human; conditions: for Kp: human, tumor and plasma, oral, ratio between tumor and plasma olaparib concentrations, surgical patients
# Procedure: At neurosurgery, contrast-enhancing tumor regions identified on preoperative MRI scans were targeted for resection. Specimens were assessed by intraoperative cytology; 3 regions of viable, solid tumor from each patient were snap frozen for PK analysis by liquid chromatography mass spectrometry (LC-MS). In the expansion cohort, 5-ALA guided neurosurgery enabled discrimination of fluorescent “core” tissue from nonfluorescent “margin” tissue. Up to 3 tumor margin biopsies were taken from each patient, from each of which half was frozen for PK analysis and half fixed for histology.
# 100 mg q.d., n = 10; 150 mg q.d., n = 35; 200 mg b.i.d., n = 3. […] All measurements performed by LC-MS.
# MDR1 = target: T1, MDR1 (Homo sapiens, UniProt P08183); test: Directional transport of [14C]-olaparib across MDCKII-MDR1 monolayers, with or without ketoconazole; assay type: in vitro ADME
# T1 construct: host or cells: MDCKII (Madin-Darby canine kidney type II) cells stably expressing human MDR1 cDNA
# T1 sequence (P08183 whole entry): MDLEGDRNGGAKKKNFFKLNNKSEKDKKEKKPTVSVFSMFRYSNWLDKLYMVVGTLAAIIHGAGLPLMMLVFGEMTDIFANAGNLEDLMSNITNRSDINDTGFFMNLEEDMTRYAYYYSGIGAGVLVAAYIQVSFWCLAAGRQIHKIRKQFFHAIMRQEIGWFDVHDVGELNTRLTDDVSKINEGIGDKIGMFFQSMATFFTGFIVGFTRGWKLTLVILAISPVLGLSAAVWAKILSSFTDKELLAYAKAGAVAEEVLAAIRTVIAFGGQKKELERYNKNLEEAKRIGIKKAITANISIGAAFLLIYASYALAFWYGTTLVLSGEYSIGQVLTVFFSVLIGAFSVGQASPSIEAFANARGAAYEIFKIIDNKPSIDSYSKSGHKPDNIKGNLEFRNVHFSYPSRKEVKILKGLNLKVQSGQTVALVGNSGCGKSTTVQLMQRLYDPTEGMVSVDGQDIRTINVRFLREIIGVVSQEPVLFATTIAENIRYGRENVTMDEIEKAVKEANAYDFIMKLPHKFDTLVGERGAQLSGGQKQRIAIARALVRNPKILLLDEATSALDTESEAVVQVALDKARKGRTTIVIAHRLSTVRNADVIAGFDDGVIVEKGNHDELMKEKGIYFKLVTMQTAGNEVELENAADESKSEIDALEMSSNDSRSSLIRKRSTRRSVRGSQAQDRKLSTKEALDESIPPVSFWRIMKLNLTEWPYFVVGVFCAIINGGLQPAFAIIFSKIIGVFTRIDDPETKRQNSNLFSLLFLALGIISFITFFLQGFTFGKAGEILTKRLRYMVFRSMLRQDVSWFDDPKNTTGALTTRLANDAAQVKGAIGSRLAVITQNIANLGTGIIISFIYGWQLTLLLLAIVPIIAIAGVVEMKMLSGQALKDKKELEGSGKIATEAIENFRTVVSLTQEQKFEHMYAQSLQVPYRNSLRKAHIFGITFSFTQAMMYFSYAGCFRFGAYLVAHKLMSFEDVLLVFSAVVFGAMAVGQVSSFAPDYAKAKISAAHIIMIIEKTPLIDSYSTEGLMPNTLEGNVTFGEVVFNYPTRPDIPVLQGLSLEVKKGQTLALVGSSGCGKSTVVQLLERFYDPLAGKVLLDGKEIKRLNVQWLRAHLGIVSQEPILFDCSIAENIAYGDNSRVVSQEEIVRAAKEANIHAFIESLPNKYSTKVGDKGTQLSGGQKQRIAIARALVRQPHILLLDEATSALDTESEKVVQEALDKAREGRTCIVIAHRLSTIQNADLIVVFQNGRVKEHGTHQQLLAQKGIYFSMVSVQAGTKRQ
# Procedure: (§1) Canine kidney epithelial cells, stably expressing human MDR1 cDNA (Madin-Darby canine kidney type II [MDCKII]–MDR1 cells) or empty vector (MDCKII control), were used to model the intact BBB and determine permeability coefficients of (^14C)-olaparib in the presence of ketoconazole (25 μM). Whole body autoradiography was performed on male pigmented rats after single oral administration of [^14C]-olaparib (15 mg/kg; 5 MBq/kg). For autoradiography studies, animal care and experiments were carried out in accordance with AstraZeneca guidelines, which comply with UK standards. […] Xenograft experiments were performed under the relevant UK Home Office Project Licence and carried out with ethical approval from the University of Glasgow under the Animal (Scientific Procedures) Act 1986 and the EU directive 2010. Mice were maintained in individually ventilated cages with environmental enrichment and following the guidelines of ARRIVE (Animal Research: Reporting of In Vivo Experiments). […] Ratiometric t-test analysis determined SER confidence intervals and P-values. Further details are available in the Supplementary Material.
# (§2) Apparent permeability coefficients were calculated for apical to basolateral (Papp a‒b) and basolateral to apical transport (Papp b‒a) as described in Methods. […] (B) Single oral doses of 15 mg/kg [14C]-olaparib were administered to male pigmented rats that were subsequently culled, sectioned, and subjected to whole body autoradiography at the timepoints shown. Radioactivity was excluded from the central nervous system in all animals at all timepoints. […] Blood, tumor, and contralateral (non tumor bearing) brain were harvested and snap frozen at the time points shown. […] Note different y-axis scales.
# (§3) Monolayers were cultured in Dulbeco’s Modified Eagle Medium (DMEM) supplemented with glucose (4.5 g/L), 10% fetal calf serum, penicillin and streptomycin on semi-permeable filter inserts (Transwell plates 3401, Costar, Cambridge, MA) for three days. Under these conditions MDR1 localises to the apical plasma membrane. Monolayer integrity was assessed by transepithelial electrical resistance (TEER) measurement then inserts washed with Hank’s Balanced Salt Solution (HBSS) and transferred to 12-well plates containing HBSS (to measure apical to basal transport, a – b) or [14C]-olaparib diluted in HBSS (dose solution, to measure basal to apical transport, b – a). After addition of dose solution (a – b) or HBSS (b – a) to the apical chamber, samples of apical and basolateral compartments were collected immediately after dosing and after 120 minutes incubation. Three concentrations of 14C-olaparib were tested (0.1, 1 and 10 µM), each in three replicates. Radioactivity was determined by liquid scintillation counting. […] Transport of olaparib or reference substrate cimetidine was determined in MDCKII-BCRP cells. Apparent permeability coefficients (Papp) were calculated:
# (§4) Efflux ratio = Papp b - a /a - b = Papp b - a / Papp a - b (mean)
# MDCKII corrected efflux ratio =
# Papp b - a /a - b ratio in transfected MDCKII cells
# Papp b - a /a - b ratio in MDCKII control cells (mean)
# recurrent GBM [2] = test: Efficacy: progression-free survival at 6 months (RANO); assay type: in vivo, human; conditions: olaparib with TMZ
# Procedure: (§5) Secondary endpoints included PFS at 6 months (PFS-6, assessed radiologically using the RANO criteria) and radiological measurement of BBB permeability and perfusion by diffusion weighted and dynamic contrast-enhanced (DCE) MRI. […] Further details of the imaging protocol are provided in the Supplementary Material. Confidence intervals for PFS data were calculated using the exact binomial distribution.
# recurrent GBM [3] = test: DCE-MRI of tumor perfusion and permeability before and after olaparib; assay type: in vivo, human; conditions: stage 1 and dose expansion patients, cycle 0
# Procedure: as §5
# The imaging protocol included four pre-contrast spoiled fast field echo (T1-FFE spoiled gradient echo) sequences with different flip angles (2o, 8o, 15o, 16-20o) for calculation of baseline T1 maps allowing estimation of contrast concentration from observed signal changes and a dynamic, contrast enhanced acquisition series with identical acquisition parameters as the 4th variable flip angle baseline T1 measurement (16-20o), consisting of 100-120 volumes with temporal spacing of 5.1-5.5 seconds (s). Gadolinium-based contrast agent (Gd-DTPA-BMA; Omniscan, GE Healthcare, Oslo, Norway) was injected by pressure injector as a 3 ml bolus at 4 ml/s (dose 0.1 mmol/kg) after acquisition of the seventh image volume, followed by saline flush. Data were analysed using the hybrid model [Li, Jackson Mag Res Med 2003] and in-house software. ROI placement was manual and enhancing pixels were identified through significant change in signal intensity following administration of contrast. […]
# [4] = Directional transport of [14C]-olaparib across MDCKII control (empty vector) monolayers; assay type: in vitro ADME, canine; conditions: dog, MDCK
# Procedure: as §1, §2, §3, §4
# [5] = 200 mg b.i.d. for 7 doses before resection, 9 samples from 3 patients
# [6] = 21 tumor margin samples, 9 dose expansion patients
# [7] = MDCK-MDR1, with ketoconazole 25 µM, read-out: Papp b-a + ketoconazole (SD)
# [8] = of 16 RP2D patients, olaparib with TMZ
compound,measurement,setting,value
"O=C(c1cc(Cc2n[nH]c(=O)c3ccccc23)ccc1F)N1CCN(C(=O)C2CC2)CC1 [olaparib, 4-[3-(4-cyclopropanecarbonylpiperazine-1-carbonyl)-4-fluorobenzyl]-2H-phthalazin-1-one]",mean olaparib concentration in stage 1 tumor samples,[1]; [5],471 nM
same,"olaparib concentration in stage 1 tumor samples, range",[1]; [5],164 to 992 nM
same,tumor margin specimens with olaparib detected,[1]; 9 patients,21/21
same,"tumor margin olaparib concentration, median",[1]; [6],512.3 nM
same,"tumor margin olaparib concentration, range",[1]; [6],97 to 1237 nM
same,tumor core specimens with olaparib detected,[1]; 27 patients,71/71
same,"tumor core olaparib concentration, range","[1]; 71 tumor core samples, 27 surgical patients",97 to 1374 nM
same,"tumor core olaparib concentration, median","[1]; 71 tumor core samples, 27 surgical patients, 3–5 hours after final preoperative dose",496 nM
same,Kp,[1]; mean,0.25
same,Kp,[1]; range,0.01 to 0.9
same,"tumor olaparib concentrations, range in all specimens",[1]; tumor core and margin,100 to 1000 nM
same,"Papp A→B at 120 min, 1 µM",MDR1; MDCK-MDR1,0.28 ×10⁻⁶ cm/s
same,"Papp A→B at 120 min, 10 µM",MDR1; MDCK-MDR1,0.58 ×10⁻⁶ cm/s
same,"Papp B→A at 120 min, 1 µM",MDR1; MDCK-MDR1,40.6 ×10⁻⁶ cm/s
same,"Papp B→A at 120 min, 10 µM","MDR1; MDCK-MDR1, read-out: Papp b-a (SD)",39.4 ×10⁻⁶ cm/s
same,"Papp B→A at 120 min, 1 µM",MDR1; [7],24.1 ×10⁻⁶ cm/s
same,"Papp B→A at 120 min, 10 µM",MDR1; [7],17.1 ×10⁻⁶ cm/s
same,patients progression free at 6 months (PFS-6),recurrent GBM [2]; evaluable patients,36% and 39%
same,number of patients progression free at 6 months,recurrent GBM [2]; of 36 patients evaluable for efficacy,14
same,changes in perfusion or permeability parameters between baseline and post-olaparib scans,recurrent GBM [3],no significant changes
same,patients needing dose reductions for neutropenia (grade 3) and thrombocytopenia (grade 2),"cohort 1, olaparib with TMZ",2
same,DLT,"cohort 3, olaparib with TMZ, one DLT",grade 3 vomiting
same,toxicity and tolerability of schedule,"cohort 4, olaparib with TMZ, one patient","toxic death associated with pancytopenia, septic shock, and renal failure"
same,"grade 2 nausea, patients",[8],1
same,"grade 2 pruritus, patients",[8],1
same,"grade 2 vomiting, patients",[8],1
same,"grade 3–4 anemia, patients",[8],3
same,"grade 3–4 lymphopenia, patients",[8],7
same,"grade 3–4 neutropenia, patients",[8],2
same,"grade 3–4 thrombocytopenia, patients",[8],4
same,patients with grade 3–4 hematological toxicities,[8],7
same,effect on TMZ-related hematological toxicity,olaparib with TMZ,exacerbated
same,"MTD / RP2D, olaparib dose","once daily, days 1–3 per week, with TMZ 75 mg/m^2 daily for 42 days",150 mg
same,"Papp A→B at 120 min, 1 µM",[4],1.66 ×10⁻⁶ cm/s
same,"Papp A→B at 120 min, 3 µM",[4],2.23 ×10⁻⁶ cm/s
same,"Papp A→B at 120 min, 10 µM",[4],2.46 ×10⁻⁶ cm/s
same,"Papp B→A at 120 min, 1 µM",[4],32 ×10⁻⁶ cm/s
same,"Papp B→A at 120 min, 3 µM",[4],29.7 ×10⁻⁶ cm/s
same,"Papp B→A at 120 min, 10 µM",[4],28.1 ×10⁻⁶ cm/s

# Reference: article PMC7746945 (Neuro-Oncology, 2020)
